According to ChEMBL document CHEMBL5303573, “Mapping human microbiome drug metabolism by gut bacteria and their genes” (Nature, 2019):

Experiments:
[1] = The drug is tested on Bifidobacterium longum subsp. Infantis strain: CCUG52486 for biotransformation. The drug concentrations were measured before and after a 12-h incubation by liquid-chromatography-coupled mass spectrometry (LC–MS); details: 2 µM
[2] = The drug is tested on Eggerthella lenta strain: ATCC25559 for biotransformation. The drug concentrations were measured before and after a 12-h incubation by liquid-chromatography-coupled mass spectrometry (LC–MS); details: 2 µM
[3] = anaerostipes sp., 12 h, 2 µM
Description: The drug is tested on Anaerostipes sp. strain: fecal isolate for biotransformation. The drug concentrations were measured before and after a 12-h incubation by liquid-chromatography-coupled mass spectrometry (LC–MS)

[4] = roseburia intestinalis, 12 h, 2 µM
Description: The drug is tested on Roseburia intestinalis strain: L1-82 for biotransformation. The drug concentrations were measured before and after a 12-h incubation by liquid-chromatography-coupled mass spectrometry (LC–MS)

[5] = The drug is tested on Clostridium sp. strain: fecal isolate for biotransformation. The drug concentrations were measured before and after a 12-h incubation by liquid-chromatography-coupled mass spectrometry (LC–MS); details: 2 µM
[6] = victivallis vadensis, 12 h, 2 µM
Description: The drug is tested on Victivallis vadensis strain: ATCC BAA-548 for biotransformation. The drug concentrations were measured before and after a 12-h incubation by liquid-chromatography-coupled mass spectrometry (LC–MS)

[7] = (§1) The drug is tested on the gut metagenome community of MV02 with ENA study accession number: PRJEB31790 and ENA sample accession number: SAMEA5537483 for biotransformation. The drug concentrations were measured over 9 timepoints collected between 0 and 24 hours of incubation by liquid-chromatography-coupled mass spectrometry (LC–MS); assay type: ADME; set-up: dose 2 uM, timepoint 0, 1, 2, 4, 6, 8, 12, 18, 24 hours; details: 2 µM
[8] = as §1, with “MV04” for “MV02”, “SAMEA5537485” for “SAMEA5537483”; assay type: ADME; set-up: dose 2 uM, timepoint 0, 1, 2, 4, 6, 8, 12, 18, 24 hours; details: 2 µM
[9] = as §1, with “MV05” for “MV02”, “SAMEA5537486” for “SAMEA5537483”; assay type: ADME; set-up: dose 2 uM, timepoint 0, 1, 2, 4, 6, 8, 12, 18, 24 hours; details: 2 µM
[10] = as §1, with “MV07” for “MV02”, “SAMEA5537488” for “SAMEA5537483”; assay type: ADME; set-up: dose 2 uM, timepoint 0, 1, 2, 4, 6, 8, 12, 18, 24 hours; details: 2 µM
[11] = as §1, with “MV09” for “MV02”, “SAMEA5537490” for “SAMEA5537483”; assay type: ADME; set-up: dose 2 uM, timepoint 0, 1, 2, 4, 6, 8, 12, 18, 24 hours; details: 2 µM
[12] = as §1, with “MV14” for “MV02”, “SAMEA5537495” for “SAMEA5537483”; assay type: ADME; set-up: dose 2 uM, timepoint 0, 1, 2, 4, 6, 8, 12, 18, 24 hours; details: 2 µM
[13] = as §1, with “MV15” for “MV02”, “SAMEA5537496” for “SAMEA5537483”; assay type: ADME; set-up: dose 2 uM, timepoint 0, 1, 2, 4, 6, 8, 12, 18, 24 hours; details: 2 µM
[14] = as §1, with “MV21” for “MV02”, “SAMEA5537502” for “SAMEA5537483”; assay type: ADME; set-up: dose 2 uM, timepoint 0, 1, 2, 4, 6, 8, 12, 18, 24 hours; details: 2 µM
[15] = as §1, with “MV24” for “MV02”, “SAMEA5537505” for “SAMEA5537483”; assay type: ADME; set-up: dose 2 uM, timepoint 0, 1, 2, 4, 6, 8, 12, 18, 24 hours; details: 2 µM
[16] = as §1, with “MV25” for “MV02”, “SAMEA5537506” for “SAMEA5537483”; assay type: ADME; set-up: dose 2 uM, timepoint 0, 1, 2, 4, 6, 8, 12, 18, 24 hours; details: 2 µM
[17] = as §1, with “MV27” for “MV02”, “SAMEA5537508” for “SAMEA5537483”; assay type: ADME; set-up: dose 2 uM, timepoint 0, 1, 2, 4, 6, 8, 12, 18, 24 hours; details: 2 µM
[18] = The drug is tested on Clostridium hathewayi strain: DSM13479 for biotransformation. The drug concentrations were measured before and after a 12-h incubation by liquid-chromatography-coupled mass spectrometry (LC–MS); details: hungatella hathewayi, 2 µM
[19] = The drug is tested on Clostridium spiroforme strain: DSM1552 for biotransformation. The drug concentrations were measured before and after a 12-h incubation by liquid-chromatography-coupled mass spectrometry (LC–MS); details: thomasclavelia spiroformis, 2 µM
[20] = The drug is tested on Salmonella typhimurium strain: LT2 for biotransformation. The drug concentrations were measured before and after a 12-h incubation by liquid-chromatography-coupled mass spectrometry (LC–MS); details: salmonella enterica subsp. enterica, 2 µM

| Structure (SMILES) | Bacterial Biotransformation [1] | Bacterial Biotransformation [2] | Bacterial Biotransformation [3] | Bacterial Biotransformation [4] | Bacterial Biotransformation [5] | Bacterial Biotransformation [6] | further results |
| --- | --- | --- | --- | --- | --- | --- | --- |
| OC(c1cc(C(F)(F)F)nc2c(C(F)(F)F)cccc12)C1CCCCN1 (centres undefined) [MEFLOQUINE] | Compound NOT metabolized | Compound metabolized | Compound NOT metabolized | Compound metabolized |  |  |  |
| CCCCC(=O)N(Cc1ccc(-c2ccccc2-c2nnn[nH]2)cc1)[C@H](C(=O)O)C(C)C | Compound NOT metabolized | Compound NOT metabolized | Compound NOT metabolized |  | Compound NOT metabolized | Compound NOT metabolized |  |
| Cc1cc(C)cc(OCC2CNC(=O)O2)c1 (centres undefined) [METAXALONE] | Compound NOT metabolized | Compound NOT metabolized | Compound NOT metabolized | Compound NOT metabolized | Compound metabolized |  |  |
| CCCCC(=O)O[C@]1(C(=O)CO)[C@@H](C)C[C@H]2[C@@H]3CCC4=CC(=O)C=C[C@]4(C)[C@@]3(F)[C@@H](O)C[C@@]21C [BETAMETHASONE VALERATE] |  | Compound metabolized | Compound NOT metabolized | Compound NOT metabolized | Compound metabolized | Compound metabolized |  |
| C[C@@H]1C[C@H]2[C@@H]3CCC4=CC(=O)C=C[C@]4(C)[C@@]3(F)[C@@H](O)C[C@]2(C)[C@@]1(O)C(=O)CO [DEXAMETHASONE] |  | Compound NOT metabolized | Compound NOT metabolized |  |  | Compound NOT metabolized | Bacterial Biotransformation [7]: Compound NOT metabolized; Bacterial Biotransformation [8]: Compound NOT metabolized; Bacterial Biotransformation [9]: Compound NOT metabolized; Bacterial Biotransformation [10]: Compound NOT metabolized; Bacterial Biotransformation [11]: Compound metabolized; Bacterial Biotransformation [12]: Compound NOT metabolized; Bacterial Biotransformation [13]: Compound NOT metabolized; Bacterial Biotransformation [14]: Compound NOT metabolized; Bacterial Biotransformation [15]: Compound metabolized; Bacterial Biotransformation [16]: Compound NOT metabolized; Bacterial Biotransformation [17]: Compound NOT metabolized |
| CC(C)(C)NCC(O)COc1cccc2c1CC(O)C(O)C2 (centres undefined) [NADOLOL] | Compound NOT metabolized |  | Compound NOT metabolized | Compound NOT metabolized | Compound NOT metabolized |  |  |
| CN(C)C(=O)C(CCN1CCC(O)(c2ccc(Cl)cc2)CC1)(c1ccccc1)c1ccccc1 [LOPERAMIDE] |  | Compound NOT metabolized | Compound NOT metabolized | Compound metabolized | Compound metabolized | Compound NOT metabolized |  |
| CC12CC3CC(C)(C1)CC(N)(C3)C2 [MEMANTINE] | Compound NOT metabolized | Compound NOT metabolized | Compound NOT metabolized |  | Compound NOT metabolized |  |  |
| C=C[C@H]1CN2CC[C@H]1C[C@H]2[C@H](O)c1ccnc2ccc(OC)cc12.C=C[C@H]1CN2CC[C@H]1C[C@H]2[C@H](O)c1ccnc2ccc(OC)cc12.O.O.O=S(=O)(O)O [QUININE SULFATE] | Compound NOT metabolized |  | Compound NOT metabolized | Compound NOT metabolized |  |  | Bacterial Biotransformation [18]: Compound NOT metabolized; Bacterial Biotransformation [19]: Compound NOT metabolized |
| CCc1nc(N)nc(N)c1-c1ccc(Cl)cc1 [PYRIMETHAMINE] | Compound NOT metabolized | Compound NOT metabolized | Compound NOT metabolized | Compound NOT metabolized | Compound NOT metabolized |  |  |
| CCC(=O)NCC[C@@H]1CCc2ccc3c(c21)CCO3 [RAMELTEON] | Compound NOT metabolized | Compound NOT metabolized | Compound NOT metabolized |  | Compound NOT metabolized |  |  |
| Cc1ccc(/C(=C\CN2CCCC2)c2ccccn2)cc1 [TRIPROLIDINE] |  | Compound NOT metabolized | Compound NOT metabolized | Compound NOT metabolized | Compound NOT metabolized |  |  |
| COc1ccc(/C=C/C(=O)Nc2ccccc2C(=O)O)cc1OC | Compound NOT metabolized |  | Compound NOT metabolized | Compound NOT metabolized | Compound NOT metabolized | Compound NOT metabolized |  |
| CC(C)(C)NC[C@H](O)COc1ccccc1C1CCCC1.CC(C)(C)NC[C@H](O)COc1ccccc1C1CCCC1.O=S(=O)(O)O [PENBUTOLOL SULFATE] | Compound NOT metabolized |  | Compound NOT metabolized | Compound NOT metabolized | Compound metabolized | Compound NOT metabolized | Bacterial Biotransformation [20]: Compound NOT metabolized |
| O=C(O[C@H]1C[C@H]2CC[C@@H](C1)[N+]21CCCC1)C(O)(c1ccccc1)c1ccccc1.[Cl-] [TROSPIUM CHLORIDE] | Compound NOT metabolized | Compound NOT metabolized | Compound NOT metabolized | Compound NOT metabolized |  | Compound NOT metabolized |  |
| COC(=O)[C@H]1[C@H]2C[C@@H]3c4[nH]c5cc(OC)ccc5c4CCN3C[C@H]2C[C@@H](OC(=O)c2cc(OC)c(OC)c(OC)c2)[C@@H]1OC [RESERPINE] | Compound NOT metabolized | Compound NOT metabolized | Compound NOT metabolized | Compound NOT metabolized | Compound NOT metabolized | Compound NOT metabolized |  |
| CC(=O)O[C@H]1C(=O)[C@@]2(C)[C@H]([C@H](OC(=O)c3ccccc3)[C@]3(O)C[C@H](OC(=O)[C@H](O)[C@@H](NC(=O)c4ccccc4)c4ccccc4)C(C)=C1C3(C)C)[C@]1(OC(C)=O)CO[C@@H]1C[C@@H]2O [PACLITAXEL] | Compound NOT metabolized | Compound NOT metabolized | Compound NOT metabolized | Compound NOT metabolized |  | Compound NOT metabolized |  |
| CCN(CC)CCNC(=O)c1cc(S(C)(=O)=O)ccc1OC [TIAPRIDE] | Compound NOT metabolized |  | Compound NOT metabolized | Compound NOT metabolized | Compound NOT metabolized |  |  |
| COc1c2occc2cc2ccc(=O)oc12 [METHOXSALEN] |  |  | Compound metabolized | Compound metabolized | Compound metabolized |  | Bacterial Biotransformation [18]: Compound metabolized; Bacterial Biotransformation [19]: Compound NOT metabolized |
| O=C(NC(Cc1cc(=O)[nH]c2ccccc12)C(=O)O)c1ccc(Cl)cc1 (centres undefined) [REBAMIPIDE] | Compound NOT metabolized |  | Compound NOT metabolized | Compound NOT metabolized | Compound NOT metabolized | Compound NOT metabolized |  |
| COC(=O)C(c1ccccc1)C1CCCCN1 (centres undefined) [METHYLPHENIDATE] | Compound NOT metabolized | Compound metabolized |  |  | Compound metabolized |  | Bacterial Biotransformation [20]: Compound NOT metabolized |
